Experimental data reported in PubChem BioAssay (NCI).
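Grown in 96-well plates, cells were treated for 48 hours with each compound at five concentrations. Insufficient inhibition: endpoint recorded as highest concentration tested. The concentration for full growth arrest is given as TGI.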

Tests used:
Experiment in all cases: DTP human tumour cell line panel, 48 h
[1] = system: 786-0 renal
[2] = system: A498 renal
[3] = system: A549 NSCLC
[4] = system: ACHN renal
[5] = system: CAKI-1 renal
[6] = system: CCRF-CEM leukemia
[7] = system: COLO 205 colon
[8] = system: DLD-1 colon
[9] = system: DMS 114 small cell lung
[10] = system: DMS 273 small cell lung
[11] = system: EKVX NSCLC
[12] = system: HCC-2998 colon
[13] = system: HCT-116 colon
[14] = system: HCT-15 colon
[15] = system: HOP-62 NSCLC
[16] = system: HOP-92 NSCLC
[17] = system: HT29 colon
[18] = system: IGROV1 ovarian
[19] = system: K-562 leukemia
[20] = system: KM12 colon
[21] = system: KM20L2 colon
[22] = system: LOX IMVI melanoma
[23] = system: LXFL 529 NSCLC
[24] = system: M14 melanoma
[25] = system: M19-MEL melanoma
[26] = system: MALME-3M melanoma
[27] = system: MOLT-4 leukemia
[28] = system: NCI-H226 lung
[29] = system: NCI-H23 lung
[30] = system: NCI-H460 lung
[31] = system: NCI-H522 lung
[32] = system: OVCAR-3 ovarian
[33] = system: OVCAR-4 ovarian
[34] = system: OVCAR-5 ovarian
[35] = system: OVCAR-8 ovarian
[36] = system: RPMI-8226 leukemia
[37] = system: RXF 393 renal
[38] = system: RXF-631 renal
[39] = system: SF-268 CNS
[40] = system: SF-295 CNS
[41] = system: SF-539 CNS
[42] = system: SK-MEL-2 melanoma
[43] = system: SK-MEL-28 melanoma
[44] = system: SK-MEL-5 melanoma
[45] = system: SK-OV-3 ovarian
[46] = system: SN12C renal
[47] = system: SNB-19 CNS
[48] = system: SNB-75 CNS
[49] = system: SNB-78 CNS
[50] = system: SR leukemia
[51] = system: SW-620 colon
[52] = system: TK-10 renal
[53] = system: U251 CNS
[54] = system: UACC-257 melanoma
[55] = system: UO-31 renal
[56] = system: XF 498 CNS
[57] = system: HL-60(TB) leukemia
[58] = system: HOP-18 NSCLC
[59] = system: UACC-62 melanoma

N#C/C1=C(\N)CCSSSC1
TGI [1]: > 100 µM
TGI [2]: 58 µM
TGI [3]: > 100 µM
TGI [4]: > 100 µM
TGI [5]: > 100 µM
TGI [6]: > 100 µM
TGI [7]: > 100 µM
TGI [8]: > 100 µM
TGI [9]: > 100 µM
TGI [10]: > 100 µM
TGI [11]: > 100 µM
TGI [12]: > 100 µM
TGI [13]: > 100 µM
TGI [14]: 98.2 µM
TGI [15]: 89.6 µM
TGI [16]: 95.6 µM
TGI [17]: > 100 µM
TGI [18]: > 100 µM
TGI [19]: > 100 µM
TGI [20]: > 100 µM
TGI [21]: 49.3 µM
TGI [22]: > 100 µM
TGI [23]: > 100 µM
TGI [24]: 95.9 µM
TGI [25]: > 100 µM
TGI [26]: > 100 µM
TGI [27]: > 100 µM
TGI [28]: 65.8 µM
TGI [29]: > 100 µM
TGI [30]: 51.2 µM
TGI [31]: 45.6 µM
TGI [32]: > 100 µM
TGI [33]: > 100 µM
TGI [34]: > 100 µM
TGI [35]: 43.2 µM
TGI [36]: > 100 µM
TGI [37]: > 100 µM
TGI [38]: > 100 µM
TGI [39]: > 100 µM
TGI [40]: 50.8 µM
TGI [41]: > 100 µM
TGI [42]: 90.5 µM
TGI [43]: > 100 µM
TGI [44]: 60.9 µM
TGI [45]: > 100 µM
TGI [46]: > 100 µM
TGI [47]: > 100 µM
TGI [48]: > 100 µM
TGI [49]: > 100 µM
TGI [50]: > 100 µM
TGI [51]: > 100 µM
TGI [52]: > 100 µM
TGI [53]: > 100 µM
TGI [54]: > 100 µM
TGI [55]: > 100 µM
TGI [56]: > 100 µM

CCC(C)COC(=O)c1ccc(N=Cc2ccc(C=Nc3ccc(C(=O)OCC(C)CC)cc3)cc2)cc1 (configuration not stated)
TGI [1]: > 100 µM
TGI [2]: > 100 µM
TGI [3]: > 100 µM
TGI [4]: > 100 µM
TGI [5]: > 100 µM
TGI [6]: > 100 µM
TGI [7]: > 100 µM
TGI [8]: > 100 µM
TGI [9]: > 100 µM
TGI [10]: > 100 µM
TGI [11]: > 100 µM
TGI [12]: > 100 µM
TGI [13]: > 100 µM
TGI [14]: > 100 µM
TGI [57]: > 100 µM
TGI [58]: > 100 µM
TGI [15]: > 100 µM
TGI [16]: > 100 µM
TGI [17]: > 100 µM
TGI [18]: > 100 µM
TGI [19]: > 100 µM
TGI [21]: > 100 µM
TGI [22]: > 100 µM
TGI [23]: > 100 µM
TGI [24]: > 100 µM
TGI [26]: > 100 µM
TGI [27]: > 100 µM
TGI [28]: > 100 µM
TGI [29]: > 100 µM
TGI [30]: > 100 µM
TGI [31]: > 100 µM
TGI [32]: > 100 µM
TGI [33]: > 100 µM
TGI [34]: > 100 µM
TGI [35]: > 100 µM
TGI [36]: > 100 µM
TGI [37]: > 100 µM
TGI [38]: > 100 µM
TGI [39]: > 100 µM
TGI [40]: > 100 µM
TGI [41]: > 100 µM
TGI [42]: > 100 µM
TGI [43]: > 100 µM
TGI [44]: > 100 µM
TGI [45]: > 100 µM
TGI [46]: > 100 µM
TGI [47]: > 100 µM
TGI [48]: > 100 µM
TGI [49]: > 100 µM
TGI [50]: > 100 µM
TGI [51]: > 100 µM
TGI [53]: > 100 µM
TGI [54]: > 100 µM
TGI [59]: > 100 µM
TGI [55]: > 100 µM

CC12CP(=O)(c3ccccc3)CC1C2(Cl)Cl (configuration not stated)
TGI [1]: > 100 µM
TGI [3]: > 100 µM
TGI [6]: > 100 µM
TGI [7]: > 100 µM
TGI [8]: > 100 µM
TGI [9]: > 100 µM
TGI [10]: > 100 µM
TGI [11]: > 100 µM
TGI [12]: > 100 µM
TGI [13]: > 100 µM
TGI [58]: > 100 µM
TGI [15]: > 100 µM
TGI [17]: > 100 µM
TGI [18]: > 100 µM
TGI [19]: > 100 µM
TGI [20]: > 100 µM
TGI [21]: > 100 µM
TGI [22]: > 100 µM
TGI [23]: > 100 µM
TGI [24]: > 100 µM
TGI [25]: > 100 µM
TGI [27]: > 100 µM
TGI [29]: > 100 µM
TGI [30]: > 100 µM
TGI [31]: > 100 µM
TGI [32]: > 100 µM
TGI [33]: > 100 µM
TGI [35]: > 100 µM
TGI [36]: > 100 µM
TGI [37]: > 100 µM
TGI [40]: > 100 µM
TGI [41]: > 100 µM
TGI [43]: > 100 µM
TGI [44]: > 100 µM
TGI [45]: > 100 µM
TGI [46]: > 100 µM
TGI [47]: > 100 µM
TGI [48]: > 100 µM
TGI [49]: > 100 µM
TGI [51]: > 100 µM
TGI [52]: > 100 µM
TGI [53]: > 100 µM
TGI [59]: > 100 µM
TGI [56]: > 100 µM

Cc1ccc(/C=C/C(=O)c2sc(-c3nc(C)c(C(=O)/C=C/c4ccc(C)cc4)s3)nc2C)cc1
TGI [1]: > 100 µM
TGI [2]: > 100 µM
TGI [3]: > 100 µM
TGI [4]: > 100 µM
TGI [5]: > 100 µM
TGI [6]: > 100 µM
TGI [7]: > 100 µM
TGI [8]: > 100 µM
TGI [9]: > 100 µM
TGI [10]: > 100 µM
TGI [11]: > 100 µM
TGI [12]: > 100 µM
TGI [14]: > 100 µM
TGI [57]: > 100 µM
TGI [58]: > 100 µM
TGI [15]: > 100 µM
TGI [16]: > 100 µM
TGI [17]: > 100 µM
TGI [18]: > 100 µM
TGI [19]: > 100 µM
TGI [20]: > 100 µM
TGI [21]: > 100 µM
TGI [22]: > 100 µM
TGI [25]: > 100 µM
TGI [26]: > 100 µM
TGI [27]: > 100 µM
TGI [28]: > 100 µM
TGI [29]: > 100 µM
TGI [30]: > 100 µM
TGI [31]: > 100 µM
TGI [32]: > 100 µM
TGI [34]: > 100 µM
TGI [35]: > 100 µM
TGI [36]: > 100 µM
TGI [37]: > 100 µM
TGI [38]: > 100 µM
TGI [39]: > 100 µM
TGI [40]: > 100 µM
TGI [41]: > 100 µM
TGI [42]: > 100 µM
TGI [43]: > 100 µM
TGI [44]: > 100 µM
TGI [45]: > 100 µM
TGI [46]: > 100 µM
TGI [48]: > 100 µM
TGI [49]: > 100 µM
TGI [51]: > 100 µM
TGI [52]: > 100 µM
TGI [53]: > 100 µM
TGI [54]: > 100 µM
TGI [59]: > 100 µM
TGI [55]: > 100 µM
